Results taken from PubChem BioAssay AID540315 (Broad Institute, 2011).
Active and inactive are the calls of the source.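 The calls were made as follows: active = compounds lowering cell viability whose fitted half-effect dose is at most ten times the top tested dose; inconclusive = flat curve with moderate viability loss, or a poor fit; inactive = the rest.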

Assays:
[1] = tested on: DRD HRASV12-transformed BJ fibroblasts viability, Alamar Blue, 48 h; assay: growth inhibition of HRAS-transformed DRD cells – cell-based, secondary screen, plate reader, dry powder, set 4, dose response (AID 540315)
[2] = as above; details: DRD HRASV12-transformed BJ fibroblasts viability, Alamar Blue, 48 h; at 48 µM (top of the series)

| SMILES | AC50 [1] | activity change, negative = viability loss [2] |
| --- | --- | --- |
| COc1ccc(C(c2ccc(OC)cc2)N2CCN(C(=O)c3ccc([N+](=O)[O-])o3)CC2)cc1 | 5.84 µM | – |
| Cc1onc(C(=O)N2CCN(C(c3ccc(F)cc3)c3ccc(F)cc3)CC2)c1[N+](=O)[O-] | 0.784 µM | – |
| O=C(NCCNC(c1ccccc1)c1ccccc1)c1ccc([N+](=O)[O-])o1 | 5.59 µM | – |
| COc1ccc(C(c2ccc(OC)cc2)N2CCN(C(=O)c3noc(C)c3[N+](=O)[O-])CC2)cc1 | 4.37 µM | – |
| Cc1onc(C(=O)NCCNC(c2ccccc2)c2ccccc2)c1[N+](=O)[O-] | 43.8 µM | – |
| O=C(c1ccc([N+](=O)[O-])o1)N1CCN(C(c2ccc(F)cc2)c2ccc(F)cc2)CC1 | 10.7 µM | – |
| Cc1onc(C(=O)N2CCCN(C(c3ccccc3)c3ccccc3)CC2)c1[N+](=O)[O-] | 3.87 µM | – |
| Cc1onc(C(=O)N2CCN(Cc3ccccc3)CC2)c1[N+](=O)[O-] | – | -2.4% (inactive) |
| COC(=O)c1ccc([C@@H]2c3[nH]c4ccccc4c3C[C@@H](C(=O)OC)N2C(=O)CCl)cc1 | 0.604 µM | – |
| Cc1onc(CC(=O)N2CCN(C(c3ccc(F)cc3)c3ccc(F)cc3)CC2)c1[N+](=O)[O-] | 30.9 µM | – |
| Cc1onc(C(=O)N2CCN(C(c3ccc(Cl)cc3)c3ccc(Cl)cc3)CC2)c1[N+](=O)[O-] | 0.287 µM | – |
| Cc1onc(C(=O)N2CCN(C(c3ccccc3)c3ccccc3)CC2)c1[N+](=O)[O-] | 2.64 µM | – |
| Cc1onc(C(=O)N2CCN(C(c3ccccc3)c3ccc(Cl)cc3)CC2)c1[N+](=O)[O-] (centres undefined) | 0.585 µM | – |
| CCOc1ccccc1-n1c(C(C)N2CCN(C(=O)COc3ccc(Cl)cc3)CC2)nc2ccccc2c1=O (centres undefined) | 2.16 µM | – |
